Measured values published in the supplement of paper PMC8617591.

Experiments:
[1] = test system: Mycobacterium tuberculosis Erdman (autoluminescent); experiment: FIC90 (Loewe) at 90% inhibition (log2); higher = more antagonistic
Protocol: (§1)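 DiaMOND equipotent two-drug combination dose responses against autoluminescent M. tuberculosis Erdman in 8 in vitro models. Read-out is OD600, or luminescence for the intracellular and dormancy models, normalised to untreated wells. Hill-fit Einf, AUC25 and GRinf are potency metrics; FIC50 and FIC90 are Loewe-additivity fractional inhibitory concentrations, given as log2 (negative = synergy). Replicates are averaged.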

[2] = test system: Mycobacterium tuberculosis Erdman (autoluminescent); experiment: FIC50 (Loewe) at 50% inhibition (log2); higher = more antagonistic
Protocol: as §1

[3] = test system: Mycobacterium tuberculosis Erdman (autoluminescent); experiment: Einf, fitted maximum growth inhibition of combination (fraction); higher = stronger maximal inhibition
Protocol: as §1

[4] = test system: Mycobacterium tuberculosis Erdman (autoluminescent); experiment: AUC25, normalised area under dose response up to IC25 (fraction (0-1)); higher = more potent at low dose
Protocol: as §1

[5] = test system: Mycobacterium tuberculosis Erdman (autoluminescent); experiment: GRinf, maximum normalised growth rate inhibition (unitless (-1 to 1)); higher = less effect (negative = killing)
Protocol: as §1

NNC(=O)c1ccncc1 [isoniazid] + O=[N+]([O-])c1cn2c(n1)OC[C@@H](OCc1ccc(OC(F)(F)F)cc1)C2 [pretomanid]
Details | AUC25, [4] | Einf, [3] | FIC50, [2] | FIC90, [1] | GRinf, [5]
in vitro model: acidic pH 5.7, time point: constant (~7 days, model-specific) | 0.13 | 0.866 | 0.312 | – | -0.747
in vitro model: acidic pH 5.7, time point: terminal (~4-5 doublings, model-specific) | 0.0878 | 0.99 | 0.274 | 0.597 | -0.432
in vitro model: intracellular J774, time point: constant = terminal | – | 1 | – | 0.496 | -0.631

Details | AUC25, [4] | Einf, [3] | FIC50, [2] | FIC90, [1] | GRinf, [5]
in vitro model: butyrate, time point: constant (~7 days, model-specific) | 0.0655 | 0.945 | 0.776 | 0.672 | -0.0657
in vitro model: butyrate, time point: terminal (~4-5 doublings, model-specific) | 0.0383 | 0.973 | 0.602 | 0.403 | -0.0769
in vitro model: cholesterol 0.05 mM, time point: constant (~7 days, model-specific) | 0.122 | 0.755 | 0.145 | – | -0.201
in vitro model: cholesterol 0.05 mM, time point: terminal (~4-5 doublings, model-specific) | 0.0915 | 0.922 | 5.18 | 0.199 | -0.242
in vitro model: cholesterol-high 0.2 mM, time point: constant (~7 days, model-specific) | 0.0893 | 0.875 | 0.379 | – | -0.127
in vitro model: cholesterol-high 0.2 mM, time point: terminal (~4-5 doublings, model-specific) | 0.0482 | 0.982 | 0.467 | 0.413 | -0.542
in vitro model: dormancy (butyrate + nitrate, low O2), time point: constant (~7 days, model-specific) | 0.0671 | 0.909 | 0.185 | 0.145 | 0.115
in vitro model: dormancy (butyrate + nitrate, low O2), time point: terminal (~4-5 doublings, model-specific) | 0.0588 | 0.983 | 0.103 | 0.303 | -0.198
in vitro model: standard 7H9 glycerol, time point: constant = terminal | 0.0602 | 0.928 | 0.303 | 0.248 | 0.0614
in vitro model: valerate, time point: constant (~7 days, model-specific) | 0.102 | 0.884 | 0.537 | 2.18 | -0.208
in vitro model: valerate, time point: terminal (~4-5 doublings, model-specific) | 0.0772 | 0.938 | 0.495 | 0.477 | 0.00535

COc1c(N2C[C@@H]3CCCN[C@@H]3C2)c(F)cc2c(=O)c(C(=O)O)cn(C3CC3)c12 [moxifloxacin] + CO[C@H]1/C=C/O[C@@]2(C)Oc3c(C)c(O)c4c(O)c(c(/C=N/N5CCN(C6CCCC6)CC5)c(O)c4c3C2=O)NC(=O)/C(C)=C\C=C\[C@H](C)[C@H](O)[C@@H](C)[C@@H](O)[C@@H](C)[C@H](OC(C)=O)[C@@H]1C [rifapentine]
Details | AUC25, [4] | Einf, [3] | FIC50, [2] | FIC90, [1] | GRinf, [5]
in vitro model: acidic pH 5.7, time point: constant (~7 days, model-specific) | 0.0469 | 0.776 | 0.389 | – | 0.0776
in vitro model: acidic pH 5.7, time point: terminal (~4-5 doublings, model-specific) | 0.0544 | 0.962 | 0.463 | 0.271 | -0.0233
in vitro model: intracellular J774, time point: constant = terminal | – | 0.973 | – | 0.684 | -0.226

Details | AUC25, [4] | Einf, [3] | FIC50, [2] | FIC90, [1] | GRinf, [5]
in vitro model: butyrate, time point: constant (~7 days, model-specific) | 0.0933 | 0.893 | 0.555 | 0.73 | 0.0724
in vitro model: butyrate, time point: terminal (~4-5 doublings, model-specific) | 0.0734 | 0.956 | 0.515 | 0.586 | 0.0272
in vitro model: cholesterol 0.05 mM, time point: constant (~7 days, model-specific) | 0.131 | 0.594 | 0.777 | – | -0.074
in vitro model: cholesterol 0.05 mM, time point: terminal (~4-5 doublings, model-specific) | 0.0876 | 0.887 | 0.482 | 1.32 | -0.0906
in vitro model: cholesterol-high 0.2 mM, time point: constant (~7 days, model-specific) | 0.082 | 0.903 | 0.798 | -0.159 | -0.242
in vitro model: cholesterol-high 0.2 mM, time point: terminal (~4-5 doublings, model-specific) | 0.0641 | 0.996 | 0.807 | 0.727 | -0.866
in vitro model: dormancy (butyrate + nitrate, low O2), time point: constant (~7 days, model-specific) | 0.0771 | 0.915 | 0.269 | 0.0994 | 0.17
in vitro model: dormancy (butyrate + nitrate, low O2), time point: terminal (~4-5 doublings, model-specific) | 0.0532 | 0.985 | 0.72 | 0.719 | -0.231
in vitro model: standard 7H9 glycerol, time point: constant = terminal | 0.0584 | 0.893 | 0.509 | 0.225 | 0.0707
in vitro model: valerate, time point: constant (~7 days, model-specific) | 0.0746 | 0.844 | 0.4 | – | 0.0459
in vitro model: valerate, time point: terminal (~4-5 doublings, model-specific) | 0.0547 | 0.933 | 0.541 | 1.69 | 0.0582
